# Data from patent US7517657B2, “Peptides for detecting anti-double stranded DNA antibody and uses thereof” (Albert Einstein College of Medicine of Yeshiva University, priority 1995, dated 2009).
# Tests used:
# R4A binding to dsDNA = assay: Peptide inhibition of R4A binding to dsDNA by ELISA; set-up: species or system mouse; settings: fluid phase inhibitor, FIG. 3, FIG. 4
# Experimental: FIG. 3 depicts peptide inhibition of R4A (1 μg/ml) binding to calf thymus double stranded DNA by Enzyme Linked ImmunoSorbent Assay.
# FIG. 4 sets forth a graph representing DWEYS (L and D peptides) (SEQ ID NO:2) inhibition of R4A binding to dsDNA. IMMULON® II plates were coated overnight with 100 μg/ml salmon sperm dsDNA. R4A at a final concentration of 5 μg/ml was incubated at varying concentrations of L or D DWEYS (SEQ ID NO:2) and transferred to the plate precoated with dsDNA. After a 2-hr incubation at 37° C., the plates were washed, and alkaline phosphotase-linked goat anti-mouse IgG2b antibody was added for 1 hour at 37° C. OD after addition of substrate was monitored at 405 nm.
# [1] = system: production of anti-dsDNA antibodies; assay: Immunization of nonautoimmune BALB/c mice with peptide in complete Freund's adjuvant; type: in vivo; settings: unpublished work
# From the text: It is also noteworthy that both the R4A and 52b3 peptides have aromatic residues, tryptophan and tyrosine. […] This apparent difference in specificity is consistent with the finding that they bind distinct peptides. It is also noteworthy that both the R4A and 52b3 consensus motifs have aromatic residues, tryptophan and tyrosine. It is tempting to speculate that the negatively charged aspartate and glutamate residues are analogous to phosphate groups, the aromatic tryptophan residues are analogous to the pentose sugar backbone, and the tyrosine and serine residues are analogous to the hydroxyl groups attached to the pentose moiety in the DNA molecule, thus explaining why these peptides are mimics of DNA. One potential utility of identifying peptide mimotopes for dsDNA is to try to determine if the actual eliciting antigen for production of these antibodies or target antigen for deposition in kidneys might be a protein molecule. […] It is interesting to speculate whether the murine homolog of chicken collagen XIV also has a splice variant containing the same or highly homologous peptide sequence that would be recognized by the R4A antibody.
substance,measurement,setting,value
Asp-Trp-Glu-Tyr-Ser (DWEYS; printed: Asp-Trp-Glu-Tyr-Ser),Inhibition of R4A binding to dsDNA,R4A binding to dsDNA,inhibited dsDNA binding by the appropriate antibody only
same,Production of anti-dsDNA antibodies after immunization,[1],leads to production of anti-dsDNA antibodies
